Data taken from patent publication US8658604B2, “Template-fixed beta-hairpin peptidomimetics with protease inhibitory activity” (Polyphor Ltd, priority 2005, dated 2014).
Like-named read-outs stand apart in the source and are kept apart here. Where a SMILES comes first, the peptide text is derived from it.

What was measured:
[1] = target: T1, CathepsinG, from human neutrophils (Homo sapiens, UniProt P08311); experiment: Enzymatic assay, cathepsin G; conditions: Cathepsin G IC50
T1 sequence (P08311 21-244): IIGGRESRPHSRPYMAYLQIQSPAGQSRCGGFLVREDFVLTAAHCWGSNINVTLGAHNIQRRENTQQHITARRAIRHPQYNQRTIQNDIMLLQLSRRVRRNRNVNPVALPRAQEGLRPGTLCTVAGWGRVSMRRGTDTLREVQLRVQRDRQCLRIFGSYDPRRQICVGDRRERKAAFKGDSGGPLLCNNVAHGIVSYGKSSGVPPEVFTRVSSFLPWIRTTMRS

[2] = target: T2, Trypsin, from human pancreas (Homo sapiens, UniProt P07477)
[3] = target: T3, Chymotrypsin, from human pancreas (Homo sapiens, UniProt P17538)
Chymase, from human skin [4] = target: T4, Chymase, from human skin (Homo sapiens, UniProt P23946)
T4 sequence (P23946 22-247): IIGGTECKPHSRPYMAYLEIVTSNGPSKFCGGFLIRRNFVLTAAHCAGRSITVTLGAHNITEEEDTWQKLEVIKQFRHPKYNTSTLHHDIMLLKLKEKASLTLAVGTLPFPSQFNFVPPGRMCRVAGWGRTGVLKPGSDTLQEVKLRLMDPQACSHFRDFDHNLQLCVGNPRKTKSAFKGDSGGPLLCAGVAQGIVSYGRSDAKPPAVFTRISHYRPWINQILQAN

[5] = target: T5, Elastase from human neutrophils (Homo sapiens, UniProt P08246); experiment: Enzymatic assay, elastase
T5 sequence (P08246 30-267): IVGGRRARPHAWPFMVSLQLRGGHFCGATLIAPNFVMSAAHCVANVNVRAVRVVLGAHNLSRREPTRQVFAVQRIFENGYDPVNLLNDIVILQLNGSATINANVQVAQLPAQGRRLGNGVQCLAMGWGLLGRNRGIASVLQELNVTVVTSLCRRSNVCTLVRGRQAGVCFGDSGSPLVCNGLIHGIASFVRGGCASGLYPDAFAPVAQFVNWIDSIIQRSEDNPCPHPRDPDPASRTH

[6] = target: Coagulation Factor Xa, from uman plasma (Homo sapiens, UniProt P00742); experiment: Enzymatic assay, coagulation factor Xa
[7] = target: Thrombin, from Human Plasma (Homo sapiens, UniProt P00734); experiment: Enzymatic assay, thrombin
[8] = target: T3, Chymotrypsin, from human pancreas; experiment: Enzymatic assay, chymotrypsin; conditions: at 100 μM
[9] = target: T2, Trypsin, from human pancreas; experiment: Enzymatic assay, trypsin; conditions: at 100 μM
[10] = Pharmacokinetic study after single oral (gavage) and intravenous administration in rats; conditions: rat
Protocol: 2.6. Pharmacokinetic Study (PK)
Pharmacokinetic Study after Single Oral (Gavage) and Intravenous Administration in Rats
Blood samples (approx. 0.24 ml) were taken following the schedule below at different time points into heparinized tubes by automated blood sampling using the DiLab AccuSampler. When a problem occurred during automated blood sampling, blood was sampled by retro-orbital bleeding under light isoflurane anesthesia. Samples were taken at the following time points: 0, 5 min (only i.v.), 15, 30 min and 1, 2, 4, 8, 16, 24 and 36 (only p.o.) hours and added to heparinized tubes. Plasma was removed from pelleted cells upon centrifugation and frozen at −80° C. prior to HPLC-MS analysis.
Preparation of the Plasma Calibration Samples
“Blank” rat plasma from untreated animals was used. […] The OASIS® HLB cartridges were conditioned with 1 ml of methanol and then with 1 ml of 1% NH3 in water. Samples were then diluted with 400 μl of 1% NH3 in water and loaded. The plate was washed with 1 ml of methanol/1% NH3 in water 5/95. Elution was performed using 1 ml of 0.1% TFA in methanol.
The plate containing eluates was introduced into the concentrator system and taken to dryness. The residues were dissolved in 100 μl of formic acid 0.1%/acetonitrile, 95/5 (v/v) and analysed in the HPLC/MS on a reverse phase analytical column (Jupiter C18, 50×2.0 mm, 5 μm, Phenomenex), using gradient elution (mobile phases A: 0.1% formic acid in water, B: Acetonitrile; from 5% B to 100% B in 2 min.).
Preparation of Plasma Samples
From each sample 100 μl of plasma were taken for the extraction. If the volume was less than 100 μl the appropriate amount of “blank” mouse plasma was added in order to keep the matrix identical to the calibration curve. Samples were then spiked with IS and processed as described for the calibration curve.
Pharmacokinetic Evaluation
The area under the curve AUC was calculated by the linear trapezoidal rule. AUC(t-∞) was estimated as Ct/b (b: elimination rate constant). […] the sum of AUC(0-t) and AUC(t-∞). Elimination half-life was calculated by the linear regression on at least three data points during the elimination phase. The time intervals selected for the half-life determinations were evaluated by the correlation coefficient (r^2), which should be at least above 0.85 and most optimally above 0.96. In case of i.v. administration the initial concentration at tzero was determined by extrapolation of the curve through the first two time points.

[11] = tested on: Tryptase, from human lung; experiment: Enzymatic assay, tryptase; conditions: at 100 μM
Chymase, from human skin [12] = target: T4, Chymase, from human skin; experiment: Enzymatic assay, chymase
[13] = assay type: in vitro ADME; conditions: 10 µM
Protocol: 405 μl of plasma/albumin solution were placed in a polypropylene (PP) tube and spiked with 45 μl of compound from a […] solution B, derived from 135 μl of PBS and 15 μl of 1 mM peptide in PBS, pH 7.4. 150 μl aliquots were transferred into individual wells of the 10 kDa filter plate (Millipore MAPPB 1010 Biomax membrane). For “0 minutes controls”: 270 μl of PBS were placed in a PP tube and 30 μl of stock solution B was added and vortexed. 150 μl of control solution were placed into one well of the filter plate and served as “filtered control”.
Further 150 μl of control solution were placed directly into a receiver well (reserved for filtrate) and served as “not-filtered control”. The entire plate including evaporation lid was incubated for 60 min at 37° C. Plasma samples (rat plasma: Harlan Sera lab UK, human plasma: Blutspendezentrum Zürich) were centrifuged at least for 2 h at 4300 rpm (3500 g) and 15° C. in order to yield 100 filtrate. For “serum albumin”-samples (freshly prepared human albumin: Sigma A-4327, rat albumin: Sigma A-6272, all at 40 mg/ml concentration in PBS) approximately 1 hour of centrifugation was sufficient. The filtrates in the receiver PP plate were analysed by LC/MS as follower follows: Column: Jupiter C18 (Phenomenex), mobile phases: (A) 0.1% formic acid in water and (B) acetonitrile, gradient: 5%-100% (B) in 2 minutes, electrospray ionization, MRM detection (triple quadrupole). The peak areas were determined and triplicate values were averaged. The binding was expressed in percent of the (filtered and not-filtered time point 0 min) control 1 and 2 by: 100−(100×T60/T0). The average from these values was then calculated.

[14] = target: Urokinase from human urine (Homo sapiens, UniProt P00749); experiment: Enzymatic assay, urokinase

T3 sequence (P17538 19-263): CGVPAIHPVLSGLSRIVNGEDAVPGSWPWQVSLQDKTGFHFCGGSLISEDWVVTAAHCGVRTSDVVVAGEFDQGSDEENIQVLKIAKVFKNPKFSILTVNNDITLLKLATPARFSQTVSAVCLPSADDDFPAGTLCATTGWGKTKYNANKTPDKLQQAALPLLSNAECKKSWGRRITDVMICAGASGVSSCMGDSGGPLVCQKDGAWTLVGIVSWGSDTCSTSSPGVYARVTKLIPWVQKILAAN
Coagulation Factor Xa, from uman plasma, sequence (P00742 235-488 limits assumed): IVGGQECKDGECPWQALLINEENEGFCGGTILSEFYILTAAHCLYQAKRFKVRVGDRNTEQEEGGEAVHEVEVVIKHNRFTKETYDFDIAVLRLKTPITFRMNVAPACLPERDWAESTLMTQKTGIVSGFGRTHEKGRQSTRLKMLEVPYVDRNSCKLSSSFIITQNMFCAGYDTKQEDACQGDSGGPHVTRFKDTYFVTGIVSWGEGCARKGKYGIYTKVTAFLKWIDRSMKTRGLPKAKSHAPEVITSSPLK
Coagulation Factor Xa, from uman plasma, sequence (P00742 41-179 limits assumed): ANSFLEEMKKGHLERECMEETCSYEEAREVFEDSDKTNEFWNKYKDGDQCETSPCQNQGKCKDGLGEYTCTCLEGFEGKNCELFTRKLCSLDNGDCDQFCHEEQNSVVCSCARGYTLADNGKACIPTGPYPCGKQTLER

## CC[C@H](C)[C@@H]1NC(=O)[C@@H]2CCCN2C(=O)[C@@H]2CCCN2C(=O)[C@H](CCC(=O)O)NC(=O)[C@H](CO)NC(=O)[C@H](CCCCN)NC(=O)[C@H]([C@@H](C)O)NC(=O)[C@@H]2CSSC[C@H](NC1=O)C(=O)N[C@@H](CO)C(=O)N1CCC[C@@H]1C(=O)N1CCC[C@H]1C(=O)N[C@@H](Cc1ccccc1)C(=O)N2 [Ex. 21] (HELM PEPTIDE1{F.C.T.K.S.E.P.P.I.C.S.[dP].P}$PEPTIDE1,PEPTIDE1,2:R3-10:R3|PEPTIDE1,PEPTIDE1,1:R1-13:R2$$$V2.0)
[1]
  IC50: 0.097 µM
[2]
  Trypsin at 100 μM %: 95.6%
[3]
  Chymotrypsin at 100 μM %: 2.6%
Chymase, from human skin [4]
  Chymase at 100 μM %: 5%
[5]; Elastase IC50
  IC50: 0.0164 µM

## CCCC[C@@H]1NC(=O)[C@@H]2CCCN2C(=O)[C@H]2CCCN2C(=O)[C@H](CCC(N)=O)NC(=O)[C@@H]2CSSC[C@H](NC1=O)C(=O)N[C@@H]([C@@H](C)O)C(=O)N[C@@H](C)C(=O)N[C@@H](CO)C(=O)N[C@@H]([C@@H](C)CC)C(=O)N1CCC[C@H]1C(=O)N1CCC[C@H]1C(=O)N[C@@H](CCC(N)=O)C(=O)N2 [Ex. 131] (HELM PEPTIDE1{[Nle].C.T.A.S.I.P.P.Q.C.Q.[dP].P}$PEPTIDE1,PEPTIDE1,2:R3-10:R3|PEPTIDE1,PEPTIDE1,1:R1-13:R2$$$V2.0)
[1]
  IC50: 0.045 µM
[2]
  Trypsin at 100 μM %: 0%
[5]; read-out: Elastase IC50
  IC50: 0.028 µM

## CC[C@H](C)[C@@H]1NC(=O)[C@@H]2CCCN2C(=O)[C@@H]2CCCN2C(=O)[C@H](CC(=O)O)NC(=O)[C@H](CO)NC(=O)[C@H](CCCCN)NC(=O)[C@H]([C@@H](C)O)NC(=O)[C@@H]2CSSC[C@H](NC1=O)C(=O)N[C@@H](Cc1ccccc1)C(=O)N1CCC[C@@H]1C(=O)N1CCC[C@H]1C(=O)N[C@@H](CCCNC(=N)N)C(=O)N2 [Ex. 75] (HELM PEPTIDE1{R.C.T.K.S.D.P.P.I.C.F.[dP].P}$PEPTIDE1,PEPTIDE1,2:R3-10:R3|PEPTIDE1,PEPTIDE1,1:R1-13:R2$$$V2.0)
[1]
  IC50: 0.086 µM
[6]
  FXa at 100 μM %: 5.7%
[7]
  Thrombin at 100 μM %: 1.1%
[8]
  Chymotrypsin at 100 μM %: 7.8 at 100 μM %
[9]
  Trypsin at 100 μM %: 92.6%
[10]; male, Wistar, in vivo, iv, 5 mg/kg
  half-life: 0.5 h
[10]; male, Wistar, iv, 5 mg/kg
  level at 0.25 h: 5770 ng/mL
  level at 0.5 h: 3460 ng/mL
  level at 4 h: 18 ng/mL
[10]; male, Wistar, po
  Cmax: 46 ng/mL
[10]; male, Wistar, po, 50 mg/kg
  Vd (apparent distribution volume): 1.008 L/kg
  level at 4 h: 24 ng/mL
[10]
  apparent distribution volume after oral administration, fold higher than after i.v.: about 1.8 fold
[10]; 5 mg/kg
  % absorbed (F) (percentage of normalized AUC0-∞ po. against normalized AUC0-∞ i.v.): 100%
[10]; 50 mg/kg
  % absorbed (F) (percentage of normalized AUC0-∞ po. against normalized AUC0-∞ i.v.): 1.3%
[10]; iv, 5 mg/kg
  Cmax norm: 0.08 ng/mL
  initial distribution volume: 355 mL/kg
[10]; po, 50 mg/kg
  Cmax norm: 0.25 ng/mL
[11]
  Tryptase at 100 μM %: 0%
Chymase, from human skin [12]
  Chymase at 100 μM %: 0%
[13]
  Stability human Plasma t1/2: 5 h
  Stability rat Plasma t1/2: 5 h
[14]
  Urokinase at 100 μM %: 5.7%
[5]; at 100 μM (stated in cell instead of IC50)
  Elastase at 100 μM %: 69.1 at %

## CCCC[C@@H]1NC(=O)[C@@H]2CCCN2C(=O)[C@@H](C)NC(=O)[C@H](Cc2ccc(O)cc2)NC(=O)[C@@H]2CSSC[C@H](NC1=O)C(=O)N[C@@H]([C@@H](C)O)C(=O)N[C@@H](C)C(=O)N[C@@H](CO)C(=O)N[C@@H]([C@@H](C)CC)C(=O)N1CCC[C@H]1C(=O)N1CCC[C@H]1C(=O)N[C@@H](CCC(N)=O)C(=O)N2 [Ex. 130] (HELM PEPTIDE1{[Nle].C.T.A.S.I.P.P.Q.C.Y.[dA].P}$PEPTIDE1,PEPTIDE1,2:R3-10:R3|PEPTIDE1,PEPTIDE1,1:R1-13:R2$$$V2.0)
Chymase, from human skin [4]
  Chymase at 100 μM %: <4000%
[5]; Elastase IC50
  IC50: 0.029 µM
